Series [1] concerns the target T1, YxeB (Bc_0383) (Bacillus cereus, UniProt Q81IK3).
T1 sequence (Q81IK3 20-306): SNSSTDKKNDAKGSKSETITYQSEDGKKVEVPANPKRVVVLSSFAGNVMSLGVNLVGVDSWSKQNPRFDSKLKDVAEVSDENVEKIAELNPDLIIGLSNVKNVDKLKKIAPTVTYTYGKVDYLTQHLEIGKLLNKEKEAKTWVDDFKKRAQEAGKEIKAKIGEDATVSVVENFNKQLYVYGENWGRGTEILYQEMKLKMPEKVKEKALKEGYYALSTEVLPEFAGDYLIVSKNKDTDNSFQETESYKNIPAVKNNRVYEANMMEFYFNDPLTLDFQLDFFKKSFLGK
Format: binding, B. cereus ATCC 14579. Conditions: for Kd: pH 7.

Series [2] deals with T2, FpuA (Bc_4528) (Bacillus cereus, UniProt Q817L3).
T2 sequence (Q817L3 19-324): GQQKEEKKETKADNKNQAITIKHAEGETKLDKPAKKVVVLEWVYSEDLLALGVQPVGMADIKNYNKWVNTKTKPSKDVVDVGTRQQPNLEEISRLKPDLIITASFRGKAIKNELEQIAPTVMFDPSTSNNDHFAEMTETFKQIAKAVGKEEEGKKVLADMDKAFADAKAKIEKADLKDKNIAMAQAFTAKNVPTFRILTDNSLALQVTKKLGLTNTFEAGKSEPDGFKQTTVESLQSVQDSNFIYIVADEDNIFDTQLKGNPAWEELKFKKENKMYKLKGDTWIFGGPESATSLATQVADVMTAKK
Type of series: binding, B. cereus ATCC 14579.

Series [3] has as its target T2, FpuA (Bc_4528). The note with it: pH 6.8.
The target in series [4] is T3, FatB (Bc_5106) (Bacillus cereus, UniProt Q815N5).
T3 sequence (Q815N5 24-338): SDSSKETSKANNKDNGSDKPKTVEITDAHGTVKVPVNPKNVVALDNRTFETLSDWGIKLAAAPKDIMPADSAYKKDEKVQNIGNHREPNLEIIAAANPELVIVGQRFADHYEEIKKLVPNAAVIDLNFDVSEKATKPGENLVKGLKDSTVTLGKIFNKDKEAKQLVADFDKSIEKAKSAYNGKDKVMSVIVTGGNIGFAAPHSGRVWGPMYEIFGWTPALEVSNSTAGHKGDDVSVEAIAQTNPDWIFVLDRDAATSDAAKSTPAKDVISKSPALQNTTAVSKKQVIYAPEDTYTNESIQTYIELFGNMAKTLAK
Conditions: pH 6.8.

In series [5] the target is T3, FatB (Bc_5106). Type of series: binding, B. cereus ATCC 14579.
Series [6] addresses T4, FeuA (Bc_3738) (Bacillus cereus, UniProt Q81A53).
T4 sequence (Q81A53 22-321): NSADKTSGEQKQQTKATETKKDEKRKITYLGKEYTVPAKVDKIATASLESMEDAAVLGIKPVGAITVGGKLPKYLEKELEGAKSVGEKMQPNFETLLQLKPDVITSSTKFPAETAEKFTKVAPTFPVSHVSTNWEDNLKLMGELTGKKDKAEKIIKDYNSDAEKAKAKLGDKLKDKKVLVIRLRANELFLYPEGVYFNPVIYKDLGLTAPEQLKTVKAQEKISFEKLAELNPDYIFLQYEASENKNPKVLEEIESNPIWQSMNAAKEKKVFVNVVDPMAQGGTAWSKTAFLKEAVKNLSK
As to the kind of experiment: biochemical. Format: binding, B. cereus ATCC 14579.

In series [7] the test system is B. cereus ATCC 14579. Type of series: cell-based, Bacillus cereus.
Series [8] concerns B. cereus ATCC 14579. Type of series: cell-based, Bacillus cereus. This is another data set of the same source.

“Also recorded” adds a separate entry of the source. Like-named read-outs stand apart in the source and are kept apart here. Square brackets hold non-standard residues; d marks the D form. Peptide text beside a SMILES is read from it. Orn(N5-OH,N5-Ac) = CC(=O)N(O)CCC[C@H](N)C(=O)O

Regarding `CC(=O)N([O-])CCC[C@@H]1NC(=O)CNC(=O)CNC(=O)CNC(=O)[C@H](CCCN([O-])C(C)=O)NC(=O)[C@H](CCCN([O-])C(C)=O)NC1=O.[Fe+3]` [Fch, ferrichrome] (cyclo(GGG[Orn(N5-OH,N5-Ac)][Orn(N5-OH,N5-Ac)][Orn(N5-OH,N5-Ac)])), in series [1], the “change of YxeB fluorescence on binding” value is “increase of SBP fluorescence”. In series [2], the “binding of the aposiderophore to FpuA” value is listed as “did not bind” and the “unspecific protein emission quenching of FpuA” value was 10-20%. In series [3], the “noncovalent complex with FpuA by ESI-MS (Molecular weight Measured)” value (“noncovalent complex with FpuA by ESI-MS” for short) is “no protein-ligand complexes were detected”.

Turning to `CC(=O)N(O)CCCNC(=O)CC(O)(CC(=O)NCCCN(O)C(C)=O)C(=O)O` [Sch, schizokinen], in series [2], the “ligand recognition by FpuA” value was “binding incompatibility”.

On to ferric citrate, for which the “noncovalent complex with FatB by ESI-MS (Molecular weight Measured)” value in series [4] is “no protein-ligand complexes were detected”. Further, in series [2], the “ligand recognition by FpuA” value is reported as “no recognition”. The “ligand recognition by FatB” value in series [5] is recorded as “no recognition”. In series [3], the “noncovalent complex with FpuA by ESI-MS” value is recorded as “no protein-ligand complexes were detected”.

The term Kd denotes the free concentration of one partner at which half of the binding sites on the other are occupied at equilibrium, for simple one-to-one binding. `O=C(N[C@H]1COC(=O)[C@@H](NC(=O)c2cccc(O)c2O)COC(=O)[C@@H](NC(=O)c2cccc(O)c2O)COC1=O)c1cccc(O)c1O` [Ent, enterobactin]: the affinity in series [6], expressed as Kd, was 0.036 µM.

Take `C[C@H]1OC(=O)[C@@H](NC(=O)CNC(=O)c2cccc(O)c2O)[C@@H](C)OC(=O)[C@@H](NC(=O)CNC(=O)c2cccc(O)c2O)[C@@H](C)OC(=O)[C@H]1NC(=O)CNC(=O)c1cccc(O)c1O` [BB, bacillibactin]: binding in series [6] (pH 7) was characterised by a dissociation constant (Kd) of 0.059 µM. In addition, the “ligand recognition by FatB” value in series [5] was “binding incompatibility; also recorded: no affinity”.

With `CC(=O)N(O)CCC[C@@H]1NC(=O)CNC(=O)CNC(=O)CNC(=O)[C@H](CCCN(O)C(C)=O)NC(=O)[C@H](CCCN(O)C(C)=O)NC1=O.[Fe+3]` [FeFch] (cyclo(GGG[Orn(N5-OH,N5-Ac)][Orn(N5-OH,N5-Ac)][Orn(N5-OH,N5-Ac)])), in series [1], the Kd is 0.03 µM. For the same compound, the “effect on uptake of ^55FeDFO” value in series [7] is “inhibited”.

`CC(=O)N(O)CCCCCNC(=O)CCC(=O)N(O)CCCCCNC(=O)CCC(=O)N(O)CCCCCN.[Fe+3]` [FeDFO]: the Kd in series [1] was determined as 0.018 µM. Besides, the “effect on transport of ^55FeFch” value in series [7] is on record as “inhibited”.

`CC(=O)N(O)CCCCCNC(=O)CCC(=O)N(O)CCCCCNC(=O)CCC(=O)N(O)CCCCCN` [DFO, desferrioxamine B]: the “change of YxeB fluorescence on binding” value in series [1] is “increase of SBP fluorescence”.

In the case of `O=C(CC(O)(CC(=O)NCCCCNCCCNC(=O)c1ccc(O)c(O)c1)C(=O)O)NCCCCNCCCNC(=O)c1ccc(O)c(O)c1` [PB, petrobactin], the “noncovalent complex with FatB by ESI-MS (Molecular weight Measured)” value in series [4] was “not observed”. In addition, in series [7], the “effect on incorporation of radioactive ferric Ent” value was “only slightly affected”, the “effect on uptake of radioactive ferric 3,4-DHB” value is recorded as “inhibited”, the “effect on uptake of radioactive ferric PB” value was “inhibited” and the “effect on uptake of radioactive ferric PB^ν” value was “inhibited”. In series [2] (pH 7), this compound returned a dissociation constant (Kd) of 0.023 µM. Besides, the “noncovalent complex with FpuA by ESI-MS” value in series [3] was “not observed”.

In general, Km refers to the concentration of substrate that gives half-maximal velocity. On to `O=C(O)c1ccc(O)c(O)c1` [3,4-DHB, 3,4-dihydroxybenzoic acid], for which, in series [7], the “effect on uptake of radioactive ferric PB” value was “inhibited” and the “effect on uptake of radioactive ferric PB^ν” value is “inhibited”. Moreover, in series [2], the “ligand recognition by FpuA” value is “not specifically quenched”. For the same compound, in series [3], the “noncovalent complex with FpuA by ESI-MS” value was “not observed”. For the same compound, in series [8], the Km is 0.4 ± 0.1 µM and the vmax stood at 2.3 ± 0.1 pmol Fe mL^-1 min^-1.

With FeEnt, in series [6] (pH 7), the Kd was 0.012 µM.
